One block for each compound: values may come before it.
Legend:
human recombinant GK = target: T1, human recombinant GK (Homo sapiens, UniProt P35557); test: Glucokinase EC50 assay; format: biochemical; conditions: compared with the other acyclic C5 analogues of Table 1
T1 sequence (P35557 1-465): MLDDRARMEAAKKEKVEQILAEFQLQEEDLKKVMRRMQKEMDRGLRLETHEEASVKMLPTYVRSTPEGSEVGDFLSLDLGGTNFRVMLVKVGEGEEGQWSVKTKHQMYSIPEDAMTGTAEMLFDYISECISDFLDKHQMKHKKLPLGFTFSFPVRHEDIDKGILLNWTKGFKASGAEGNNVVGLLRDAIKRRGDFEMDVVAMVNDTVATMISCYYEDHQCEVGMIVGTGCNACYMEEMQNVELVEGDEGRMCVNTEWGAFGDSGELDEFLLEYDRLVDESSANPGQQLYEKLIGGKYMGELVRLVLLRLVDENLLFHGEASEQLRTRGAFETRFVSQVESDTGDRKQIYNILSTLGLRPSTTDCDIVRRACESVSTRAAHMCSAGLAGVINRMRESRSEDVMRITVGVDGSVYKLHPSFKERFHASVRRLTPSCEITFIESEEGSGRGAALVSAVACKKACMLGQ

ob/ob mice = test: Oral glucose tolerance test in ob/ob mice; format: in vivo, mouse; conditions: doses 3, 10 and 30 mg/kg oral
[1] = Intrinsic clearance in rat liver microsomes; format: in vitro ADME
[2] = Metabolic identification studies; format: in vitro ADME
male Sprague–Dawley rats = test: Fed blood glucose test in male Sprague-Dawley rats; format: in vivo, rat; conditions: doses 3, 10, 30 and 100 mg/kg oral

loss in potency (human recombinant GK): approximately 5 fold
SMILES: CNC(=O)Nc1cc(Oc2cncc(C)c2)c(C(C)CO)cn1 (centres unmarked) [Compound 5]

microsomal CLint [1]: 24 µL/min/mg
SMILES: CNC(=O)Nc1cc(Oc2cncc(C)c2)c([C@H]2C[C@@H](O)C2)cn1 [Compound 7]
blood glucose levels during an oral glucose tolerance test (ob/ob mice): dose-proportional decrease

site of oxidation (metabolic identification) [2]: THP ring as one site of oxidation
SMILES: CNC(=O)Nc1cc(Oc2cncc(OC)c2)c([C@H]2CCCOC2)cn1 [Compound 21]
blood glucose levels (male Sprague–Dawley rats): dose-proportional decrease
